# From ChEMBL document CHEMBL1201862, “PubChem BioAssay data set” (2004)
#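 Values below derive from 48-hour exposures of cells grown in 96-well plates, with endpoints linearly interpolated between the two concentrations bracketing the appropriate inhibition level. Abbreviation: GI50, concentration required for 50% inhibition of growth.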 The source made the active and inactive calls. No stated cut-off is given here; in the data, active = GI50 up to about 1.1 µM and inactive = higher.
# How the values were obtained:
# Test in all cases: NCI tumour cell line growth inhibition, 48 h
# [1] = tested on: OVCAR-8
# [2] = tested on: PC-3
# [3] = tested on: Hs-578T
# [4] = tested on: 786-0
# [5] = tested on: NCI-H460
# [6] = tested on: OVCAR-5
# [7] = tested on: MDA-MB-435
# [8] = tested on: SK-MEL-5
# [9] = tested on: M14
# [10] = tested on: NCI-H522
# [11] = tested on: COLO 205
# [12] = tested on: SW-620
# [13] = tested on: DU-145
# [14] = tested on: HT-29
# [15] = tested on: U-251
# [16] = tested on: HCT-116
# [17] = tested on: HCC 2998
# [18] = tested on: IGROV-1
# [19] = tested on: SF-268
# [20] = tested on: HL-60
# [21] = tested on: UACC-257
# [22] = tested on: OVCAR-4
# [23] = tested on: MDA-MB-231
# [24] = tested on: SK-MEL-2
# [25] = tested on: MCF7
# [26] = tested on: MOLT-4
# [27] = tested on: NCI-H23
# [28] = tested on: SK-OV-3
# [29] = tested on: KM12
# [30] = tested on: BT-549
# [31] = tested on: NCI-H226
# [32] = tested on: SK-MEL-28
# [33] = tested on: NCI/ADR-RES
# [34] = tested on: UO-31
# [35] = tested on: SF-295
# [36] = tested on: A549
# [37] = tested on: UACC-62
# [38] = tested on: LOX IMVI
# [39] = tested on: EKVX
# [40] = tested on: K562
# [41] = tested on: CCRF-CEM
# [42] = tested on: SR
# [43] = tested on: SN12C
# [44] = tested on: HOP-92
# [45] = tested on: RPMI-8226
# [46] = tested on: OVCAR-3
# [47] = tested on: TK-10
# [48] = tested on: SF-539
# [49] = tested on: HCT-15
# [50] = tested on: CAKI-1
# [51] = tested on: SNB-19
# [52] = tested on: MDA-N
# [53] = tested on: Malme-3M
# [54] = tested on: A498
# [55] = tested on: ACHN
# [56] = tested on: SNB-75
# [57] = tested on: T47D
# [58] = tested on: HOP-62
# [59] = tested on: RXF 393
compound,measurement,setting,value
c1ccc2c(c1)nc1n2sc2nc3ccccc3n21,GI50,[1],> 100 µM (inactive)
same,GI50,[2],> 100 µM (inactive)
same,GI50,[3],> 100 µM (inactive)
same,GI50,[4],> 100 µM (inactive)
same,GI50,[5],> 100 µM (inactive)
same,GI50,[6],> 100 µM (inactive)
same,GI50,[7],> 100 µM (inactive)
same,GI50,[8],> 100 µM (inactive)
same,GI50,[9],> 100 µM (inactive)
same,GI50,[10],34.9 µM (inactive)
same,GI50,[11],> 100 µM (inactive)
same,GI50,[12],> 100 µM (inactive)
same,GI50,[13],> 100 µM (inactive)
same,GI50,[14],> 100 µM (inactive)
same,GI50,[15],> 100 µM (inactive)
same,GI50,[16],> 100 µM (inactive)
same,GI50,[17],> 100 µM (inactive)
same,GI50,[18],> 100 µM (inactive)
same,GI50,[19],> 100 µM (inactive)
same,GI50,[20],> 100 µM (inactive)
same,GI50,[21],> 100 µM (inactive)
same,GI50,[22],> 100 µM (inactive)
same,GI50,[23],> 100 µM (inactive)
same,GI50,[24],> 100 µM (inactive)
same,GI50,[25],35.6 µM (inactive)
same,GI50,[26],> 100 µM (inactive)
same,GI50,[27],> 100 µM (inactive)
same,GI50,[28],> 100 µM (inactive)
same,GI50,[29],> 100 µM (inactive)
same,GI50,[30],> 100 µM (inactive)
same,GI50,[31],> 100 µM (inactive)
same,GI50,[32],> 100 µM (inactive)
same,GI50,[33],> 100 µM (inactive)
same,GI50,[34],> 100 µM (inactive)
same,GI50,[35],> 100 µM (inactive)
same,GI50,[36],> 100 µM (inactive)
same,GI50,[37],51.6 µM (inactive)
same,GI50,[38],> 100 µM (inactive)
same,GI50,[39],54 µM (inactive)
same,GI50,[40],> 100 µM (inactive)
same,GI50,[41],> 100 µM (inactive)
same,GI50,[42],> 100 µM (inactive)
same,GI50,[43],> 100 µM (inactive)
same,GI50,[44],> 100 µM (inactive)
same,GI50,[45],> 100 µM (inactive)
same,GI50,[46],> 100 µM (inactive)
same,GI50,[47],> 100 µM (inactive)
same,GI50,[48],> 100 µM (inactive)
same,GI50,[49],> 100 µM
same,GI50,[50],> 100 µM (inactive)
OC(CC(O)(C(F)(F)F)C(F)(F)F)C(O)c1ccco1 (stereo unspecified),GI50,[1],> 10 µM (inactive)
same,GI50,[2],> 10 µM (inactive)
same,GI50,[3],> 10 µM (inactive)
same,GI50,[4],> 10 µM (inactive)
same,GI50,[51],> 10 µM (inactive)
same,GI50,[5],> 10 µM (inactive)
same,GI50,[7],> 10 µM (inactive)
same,GI50,[8],> 10 µM (inactive)
same,GI50,[52],> 10 µM (inactive)
same,GI50,[53],> 10 µM (inactive)
same,GI50,[54],0.22 µM (active)
same,GI50,[9],> 10 µM (inactive)
same,GI50,[10],> 10 µM (inactive)
same,GI50,[11],> 10 µM (inactive)
same,GI50,[12],> 10 µM (inactive)
same,GI50,[13],> 10 µM (inactive)
same,GI50,[14],> 10 µM (inactive)
same,GI50,[15],> 10 µM (inactive)
same,GI50,[16],> 10 µM (inactive)
same,GI50,[17],> 10 µM (inactive)
same,GI50,[18],> 10 µM (inactive)
same,GI50,[19],> 10 µM (inactive)
same,GI50,[20],> 10 µM (inactive)
same,GI50,[21],> 10 µM (inactive)
same,GI50,[22],> 10 µM (inactive)
same,GI50,[23],> 10 µM (inactive)
same,GI50,[24],> 10 µM (inactive)
same,GI50,[25],> 10 µM (inactive)
same,GI50,[26],> 10 µM (inactive)
same,GI50,[27],> 10 µM (inactive)
same,GI50,[28],> 10 µM (inactive)
same,GI50,[55],> 10 µM (inactive)
same,GI50,[29],> 10 µM (inactive)
same,GI50,[31],> 10 µM (inactive)
same,GI50,[56],> 10 µM (inactive)
same,GI50,[32],> 10 µM (inactive)
same,GI50,[33],> 10 µM (inactive)
same,GI50,[57],> 10 µM (inactive)
same,GI50,[34],> 10 µM (inactive)
same,GI50,[35],> 10 µM (inactive)
same,GI50,[36],> 10 µM (inactive)
same,GI50,[37],> 10 µM (inactive)
same,GI50,[38],> 10 µM (inactive)
same,GI50,[39],> 10 µM (inactive)
same,GI50,[40],> 10 µM (inactive)
same,GI50,[41],> 10 µM (inactive)
same,GI50,[42],> 10 µM (inactive)
same,GI50,[58],> 10 µM (inactive)
same,GI50,[43],> 10 µM (inactive)
same,GI50,[45],> 10 µM (inactive)
same,GI50,[46],> 10 µM (inactive)
same,GI50,[47],> 10 µM (inactive)
same,GI50,[59],> 10 µM (inactive)
same,GI50,[48],> 10 µM (inactive)
same,GI50,[49],> 10 µM
same,GI50,[50],> 10 µM (inactive)
